Consider one compound from patent US20180236109A1, “Pain Tracking by PET-imaging (Pain-TraP)” (Universitat zu Koln, priority 2015, published 2018).

Test [1] concerns the target T1, PSMA (Mus musculus, UniProt O35409).
T1 construct: from tissue; host or cells: C57BL/6 mouse, in vivo (hindpaw, thigh/sciatic nerve lesion site, sciatic nerve plexus)
The experiment in a line: micro-PET tracer uptake in Complete-Freund's-Adjuvant (CFA) model of inflammatory pain. Type of test: in vivo, mice. As for the experimental part: (§1) Experiments were performed in male 6- to 12-week-old C57BL/6 mice. Animals were housed on a 12/12 light/dark cycle with access to food and water ad libitum. All experiments adhered to the guidelines of the International Association for the Study of Pain and to the ARRIVE guidelines, and were approved by our local Ethics Committee for Animal Research.
The mechanical sensitivity of the plantar side of a hindpaw was assessed with an automated testing device (dynamic plantar aesthesiometer; Ugo Basile). This device pushes a thin probe (0.5 mm diameter) with increasing force through a wire-grated floor against the plantar surface of the paw from beneath, and it automatically stops and records the latency time after which the animal withdraws the paw. The force increased from 0 to 5 g within 10 s (0.5 g/s ramp) and was then held at 5 g for an additional 10 s (Schmidtko et al., 2008a). The paw withdrawal latency was taken to be the mean of three consecutive trials with at least 10 s in between. After baseline measurements, 20 al of complete Freund's adjuvant (CFA; containing 1 mg/ml heat-killed Mycobacterium tuberculosis in paraffin oil 85% and mannide monooleate 15%; Sigma-Aldrich) was injected into the plantar subcutaneous space of a hindpaw, and paw withdrawal latencies were determined at the indicated timepoints after CFA injection (Schmidtko et al., 2008b).
(§2) The animals were allowed to wake up in their home cage, where they remained for 50 min. Subsequently, mice were reanesthetized, killed to reduce the time of procedures on the living animal, and placed on a two-animal holder (Medres®). PET scans in list mode were performed using a Focus 220 micro PET scanner (CTI-Siemens®) with a resolution at center of field of view of 1.4 mm. Data acquisition started exactly one hour after [^18F]DCFPyL-injection and lasted […]. It was followed by a transmission scan using a ^57Co-point source for attenuation correction. Following Fourier rebinning, data were reconstructed using the iterative OSEM3D/MAP procedure (Qi et al., 1998) resulting in voxel sizes of 0.38×0.38×0.80 mm.
(§3) Four individual volumes of interest (VOIs, 24 mm^3 each) were drawn, two of which were placed over the left and right sciatic nerve plexus. The other two were positioned either over the sciatic nerve lesion in the thigh and the undamaged contra-lesional thigh (in case of SNI model), or over the hindpaws (in case of CFA model). […] The ratio of ipsi- and contralateral VOIs was calculated.
Each measurement was taken on a separate set of animals. […] To simplify the measurement methodology, animals were sacrificed instead of anaesthesized after 1 h and measured in a iPET. Images were analyzed for the section of maximal intensity at the site of injection, the respective areas quantified, and the ratio between ipsi- and contralateral side calculated.
(§4) In the inflammatory pain model, “Complete Freunds Adjuvant (CFA)” was injected in the left hind paw, which leads to long-lasting inflammation and pain. To induce neuropathic pain in the “Spared nerve injury (SNI) model”, two branches of the sciatic nerve were ligated, while the third branch (the sural nerve) was left intact. In both models, pain sensitivity was measured using the Dynamic Plantar Test at the day before the PET scan. A movable force actuator was positioned below the plantar surface of the animal. A thin (0.5 mm) filament exerted increasing force, until the animal twitched its paw. The time it takes for the animal to retract its paw inversely reflects touch sensitivity.
(§5) On the next day, the PSMA tracer [^18F]DCFPyL was intravenously injected. After an uptake period of 60 min, an emission scan was performed for 30 min.

In test [2] the target is T1, PSMA. The experiment in a line: micro-PET tracer uptake in sciatic nerve lesion (SNI) model of neuropathic pain. It is filed as in vivo, mice. How it is done:
as §1
Under isoflurane anesthesia, the tibial and common peroneal branches of the sciatic nerve were ligated and sectioned distally, while the sural nerve was left intact (Decosterd and Woolf, 2000); (Bourquin et al., 2006). Mechanical hypersensitivity at the lateral surface of the hindpaw (sural nerve skin area) was determined using a Dynamic Plantar Aesthesiometer as described above.
as §2, §3
For each measurement a separate set of animals was used. […] To simplify the measurement methodology, animals were sacrificed instead of anaesthesized after 1 h and measured in a pPET. Images were analyzed for the section of maximal intensity at the site of injection, the respective areas quantified, and the ratio between ipsi- and contralateral side was calculated.
as §4, §5

Where [3] appears, read: site of lesion, ipsi-/contralateral ratios, individual animals.
Setting [4] is: 10 MBq into tail vein, PET after 1 h.

Each structure is given as a SMILES string.

T1 sequence (O35409 whole entry): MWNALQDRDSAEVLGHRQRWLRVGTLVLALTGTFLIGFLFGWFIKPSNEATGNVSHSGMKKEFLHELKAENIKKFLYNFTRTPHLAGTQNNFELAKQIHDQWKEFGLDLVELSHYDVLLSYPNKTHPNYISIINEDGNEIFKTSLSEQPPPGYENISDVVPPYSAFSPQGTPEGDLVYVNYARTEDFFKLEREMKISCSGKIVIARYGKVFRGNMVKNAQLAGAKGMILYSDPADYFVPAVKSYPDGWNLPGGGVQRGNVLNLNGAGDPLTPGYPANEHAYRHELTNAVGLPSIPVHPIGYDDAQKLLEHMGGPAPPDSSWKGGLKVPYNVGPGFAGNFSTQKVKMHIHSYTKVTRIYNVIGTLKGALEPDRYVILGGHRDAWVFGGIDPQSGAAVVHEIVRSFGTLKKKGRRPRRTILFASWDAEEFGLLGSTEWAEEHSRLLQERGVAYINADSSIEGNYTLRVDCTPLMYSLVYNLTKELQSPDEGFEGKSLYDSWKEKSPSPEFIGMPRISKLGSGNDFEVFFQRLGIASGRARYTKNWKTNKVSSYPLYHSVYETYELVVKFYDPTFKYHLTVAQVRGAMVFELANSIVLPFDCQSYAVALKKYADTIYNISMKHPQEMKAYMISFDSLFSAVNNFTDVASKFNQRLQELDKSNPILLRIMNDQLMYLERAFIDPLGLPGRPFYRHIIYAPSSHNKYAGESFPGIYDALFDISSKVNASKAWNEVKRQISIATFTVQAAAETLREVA

For the compound `O=C(O)CCC(NC(=O)NC(CCCCNC(=O)c1ccc([18F])nc1)C(=O)O)C(=O)O` (stereo not shown) [[^18F]DCFPyL, 2-(3-{1-Carboxy-5-[(6-[18F]fluoro-pyridine-3-carbonyl)-amino]-pentyl}-ureido)-pen tanedioic acid], the “tracer uptake at the lesion site” value is “significantly increased” on PSMA [1] (2, 7, and 14 days after CFA injection, FIG. 12B); “significantly increased” at PSMA [2] (3, 7, and 14 days after surgery, FIG. 11B). Besides, the “tracer uptake at the contralateral side” value was “little to no” at PSMA [1] (10 MBq into tail vein, PET after 1 h, contralateral paw) and “little to no” at PSMA [2] (setting [4]). Besides, at PSMA [1] (10 MBq into tail vein, PET after 1 h, injected hindpaw), the “tracer uptake at the site of CFA injection” value is given as “high”. In addition, the “enrichment at the side of CFA injection, increase over the contra-lateral side” value on PSMA [1] (FIG. 3) is ~2 fold. In addition, on PSMA [1] (average, ratio ipsi-/contralateral, FIG. 3), the “quantification of the uptake, increase over controls” value turned out to be 2 fold. The “correlation of tracer uptake with pain sensitivity” value on PSMA [1] (setting [3]) and at PSMA [2] (setting [3]) was “significantly correlated” throughout. The “tracer uptake in sham treated animals” value on PSMA [2] (setting [4]) was “little”. The “tracer uptake at the site of injury” value at PSMA [2] (10 MBq into tail vein, PET after 1 h, sciatic nerve lesion) is “high and strong enrichment”. In addition, the “quantification of the uptake, increase over sham-operated controls” value at PSMA [2] (average, FIG. 6) was 2-3 fold. Further, on PSMA [2] (neuropathic pain animals), the “tracer enrichment along the nerve plexus” value is listed as “enrichment along the nerve toward the spinal cord”.
